Where only a bound is given, the exact number is not on record here.

As usually defined, the DC50 is the concentration at which degradation of the target reaches its halfway point.

The assay has as its target T1, HMG-CoA reductase (Homo sapiens, UniProt P04035).
T1 construct: endogenous in cells; host or cells: HepG2 (Korea Cell Line Bank)
T1 sequence (P04035 1-888): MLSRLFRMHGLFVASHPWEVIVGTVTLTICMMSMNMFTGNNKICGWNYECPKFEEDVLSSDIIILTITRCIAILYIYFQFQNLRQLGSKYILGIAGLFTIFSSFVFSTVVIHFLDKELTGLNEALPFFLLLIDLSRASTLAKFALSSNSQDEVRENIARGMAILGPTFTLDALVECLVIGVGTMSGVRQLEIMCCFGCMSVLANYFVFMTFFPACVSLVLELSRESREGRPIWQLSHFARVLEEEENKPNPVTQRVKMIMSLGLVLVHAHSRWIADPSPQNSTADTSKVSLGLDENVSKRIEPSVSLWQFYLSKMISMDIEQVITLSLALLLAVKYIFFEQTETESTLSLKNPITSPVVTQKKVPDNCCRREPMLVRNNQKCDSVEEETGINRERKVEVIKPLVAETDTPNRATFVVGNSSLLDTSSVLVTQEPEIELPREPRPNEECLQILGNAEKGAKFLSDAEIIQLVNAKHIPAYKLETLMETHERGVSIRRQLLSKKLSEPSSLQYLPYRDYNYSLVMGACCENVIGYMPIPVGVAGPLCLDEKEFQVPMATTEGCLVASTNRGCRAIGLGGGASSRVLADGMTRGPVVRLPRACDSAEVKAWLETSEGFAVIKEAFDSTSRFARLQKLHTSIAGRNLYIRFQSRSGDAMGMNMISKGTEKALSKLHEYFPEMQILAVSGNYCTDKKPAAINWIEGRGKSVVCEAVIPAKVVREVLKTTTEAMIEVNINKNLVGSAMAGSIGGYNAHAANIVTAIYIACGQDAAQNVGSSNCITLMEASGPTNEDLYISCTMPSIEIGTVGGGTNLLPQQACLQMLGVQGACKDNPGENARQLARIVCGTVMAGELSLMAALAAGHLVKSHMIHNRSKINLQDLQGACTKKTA
Description: HMG-CoA reductase (HMGCR) degradation in HepG2 cells by western blotting. In kind it is cell-based. The following applies: treated for 18 hours, ratio of HMG-CoA reductase to GAPDH, read-out: DC50. The essentials:
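Western blot read-out: HMGCR protein probed (1:500, 16 hours at 4° C) alongside GAPDH loading control on 15 μg BCA-normalised RIPA lysates. Lysates came from HepG2 cells (P105–P110) exposed for 18 hours to a 10-point, three-fold series starting at 3 μM.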
Background: A western blot detects proteins with antibodies after separation by electrophoresis.
Turning to `C[C@H]1C=C2C=C[C@H](C)[C@H](CC[C@@H]3C[C@@H](O[Si](C)(C)C(C)(C)C)CC(=O)O3)[C@H]2[C@@H](OC(=O)NCCOCCCOCCNc2cccc3c2C(=O)N(C2CCC(=O)NC2=O)C3=O)C1` (stereo partly drawn) [Compound 90, (1S,3R,7S,8S,8aR)-8-(2-((2R,4R)-4-((tert-butyldimethylsilyl)oxy)-6-oxotetrahydro-2H-pyran-2-yl)ethyl)-3,7-dimethyl-1,2,3,7,8,8a-hexahydronaphthalen-1-yl (2-(3-(2-((2-(2,6-dioxopiperidin-3-yl)-1,3-dioxoisoindolin-4-yl)amino)ethoxy)propoxy)ethyl)carbamate], the DC50 is < 50 nM.
On to `C[C@H]1C=C2C=C[C@H](C)[C@H](CC[C@@H]3C[C@@H](O)CC(=O)O3)[C@H]2[C@@H](OC(=O)NCCOCCOCCOCCOCCOCCNc2cccc3c2C(=O)N(C2CCC(=O)NC2=O)C3=O)C1` (stereo partly drawn) [Compound 43, (1S,3R,7S,8S,8aR)-8-(2-((2R,4R)-4-hydroxy-6-oxotetrahydro-2H-pyran-2-yl)ethyl)-3,7-dimethyl-1,2,3,7,8,8a-hexahydronaphthalen-1-yl (17-((2-(2,6-dioxopiperidin-3-yl)-1,3-dioxoisoindolin-4-yl)amino)-3,6,9,12,15-pentaoxaheptadecyl)carbamate], for which the 50% degradation concentration (DC50) is < 50 nM.
The value for `C[C@H]1C=C2C=C[C@H](C)[C@H](CC[C@@H]3C[C@@H](O[Si](C)(C)C(C)(C)C)CC(=O)O3)[C@H]2[C@@H](OC(=O)NCCOCCOCCNc2cccc3c2CN(C2CCC(=O)NC2=O)C3=O)C1` (stereo partly drawn) [Compound 65, (1S,3R,7S,8S,8aR)-8-(2-((2R,4R)-4-((tert-butyldimethylsilyl)oxy)-6-oxotetrahydro-2H-pyran-2-yl)ethyl)-3,7-dimethyl-1,2,3,7,8,8a-hexahydronaphthalen-1-yl (2-(2-(2-((2-(2,6-dioxopiperidin-3-yl)-1-oxoisoindolin-4-yl)amino)ethoxy)ethoxy)ethyl)carbamate] was < 50 nM; that for `Cc1ncsc1-c1ccc(CNC(=O)[C@@H]2C[C@@H](O)CN2C(=O)[C@@H](NC(=O)COCCOCCOCCOCCOCCNC(=O)O[C@H]2C[C@@H](C)C=C3C=C[C@H](C)[C@H](CC[C@@H]4C[C@@H](O[Si](C)(C)C(C)(C)C)CC(=O)O4)[C@H]32)C(C)(C)C)cc1` [Compound 22, (1S,3R,7S,8S,8aR)-8-(2-((2R,4R)-4-((tert-butyldimethylsilyl)oxy)-6-oxotetrahydro-2H-pyran-2-yl)ethyl)-3,7-dimethyl-1,2,3,7,8,8a-hexahydronaphthalen-1-yl ((S)-19-((2S,4R)-4-hydroxy-2-((4-(4-methylthiazol-5-yl)benzyl)carbamoyl)pyrrolidine-1-carbonyl)-20,20-dimethyl-17-oxo-3,6,9,12,15-pentaoxa-18-azahenicosyl)carbamate] was < 50 nM; that for `C[C@H]1C=C2C=C[C@H](C)[C@H](CC[C@@H]3C[C@@H](O)CC(=O)O3)[C@H]2[C@@H](OC(=O)NCCOCCOCCNc2ccc3c(c2)C(=O)N(C2CCC(=O)NC2=O)C3=O)C1` (stereo partly drawn) [Compound 68, (1S,3R,7S,8S,8aR)-8-(2-((2R,4R)-4-hydroxy-6-oxotetrahydro-2H-pyran-2-yl)ethyl)-3,7-dimethyl-1,2,3,7,8,8a-hexahydronaphthalen-1-yl (2-(2-(2-((2-(2,6-dioxopiperidin-3-yl)-1,3-dioxoisoindolin-5-yl)amino)ethoxy)ethoxy)ethyl)carbamate] was < 50 nM.
In the case of `C[C@H]1C=C2C=C[C@H](C)[C@H](CC[C@@H]3C[C@@H](O[Si](C)(C)C(C)(C)C)CC(=O)O3)[C@H]2[C@@H](OC(=O)NCCCCCN2CCC(Nc3cccc4c3C(=O)N(C3CCC(=O)NC3=O)C4=O)CC2)C1` (stereo partly drawn) [Compound 124, (1S,3R,7S,8S,8aR)-8-(2-((2R,4R)-4-((tert-butyldimethylsilyl)oxy)-6-oxotetrahydro-2H-pyran-2-yl)ethyl)-3,7-dimethyl-1,2,3,7,8,8a-hexahydronaphthalen-1-yl (5-(4-((2-(2,6-dioxopiperidin-3-yl)-1,3-dioxoisoindolin-4-yl)amino)piperidin-1-yl)pentyl)carbamate] it was < 50 nM; in that of `C[C@H]1C=C2C=C[C@H](C)[C@H](CC[C@@H]3C[C@@H](O)CC(=O)O3)[C@H]2[C@@H](OC(=O)NCCCOC2CCN(C(=O)COc3cccc4c3C(=O)N(C3CCC(=O)NC3=O)C4=O)CC2)C1` (stereo partly drawn) [Compound 135, (1S,3R,7S,8S,8aR)-8-(2-((2R,4R)-4-hydroxy-6-oxotetrahydro-2H-pyran-2-yl)ethyl)-3,7-dimethyl-1,2,3,7,8,8a-hexahydronaphthalen-1-yl (3-((1-(2-((2-(2,6-dioxopiperidin-3-yl)-1,3-dioxoisoindolin-4-yl)oxy)acetyl)piperidin-4-yl)oxy)propyl)carbamate], < 50 nM.
In the case of `Cc1ncsc1-c1ccc(CNC(=O)[C@@H]2C[C@@H](O)CN2C(=O)[C@@H](NC(=O)COCCOCCOCCOCCNC(=O)O[C@H]2C[C@@H](C)C=C3C=C[C@H](C)[C@H](CC[C@@H]4C[C@@H](O)CC(=O)O4)[C@H]32)C(C)(C)C)cc1` [Compound 17, (1S,3R,7S,8S,8aR)-8-(2-((2R,4R)-4-hydroxy-6-oxotetrahydro-2H-pyran-2-yl)ethyl)-3,7-dimethyl-1,2,3,7,8,8a-hexahydronaphthalen-1-yl ((S)-16-((2S,4R)-4-hydroxy-2-((4-(4-methylthiazol-5-yl)benzyl)carbamoyl)pyrrolidine-1-carbonyl)-17,17-dimethyl-14-oxo-3,6,9,12-tetraoxa-15-azaoctadecyl)carbamate] it was < 50 nM; in that of `C[C@H]1C=C2C=C[C@H](C)[C@H](CC[C@@H]3C[C@@H](O[Si](C)(C)C(C)(C)C)CC(=O)O3)[C@H]2[C@@H](OC(=O)NCCCCCCN2CCC(Nc3cccc4c3C(=O)N(C3CCC(=O)NC3=O)C4=O)CC2)C1` (stereo partly drawn) [Compound 125, (1S,3R,7S,8S,8aR)-8-(2-((2R,4R)-4-((tert-butyldimethylsilyl)oxy)-6-oxotetrahydro-2H-pyran-2-yl)ethyl)-3,7-dimethyl-1,2,3,7,8,8a-hexahydronaphthalen-1-yl (6-(4-((2-(2,6-dioxopiperidin-3-yl)-1,3-dioxoisoindolin-4-yl)amino)piperidin-1-yl)hexyl)carbamate], 50 to 500 nM; in that of `C[C@H]1C=C2C=C[C@H](C)[C@H](CC[C@@H]3C[C@@H](O[Si](C)(C)C(C)(C)C)CC(=O)O3)[C@H]2[C@@H](OC(=O)N2CCC(CCOCCNc3cccc4c3C(=O)N(C3CCC(=O)NC3=O)C4=O)CC2)C1` (stereo partly drawn) [Compound 84, (1S,3R,7S,8S,8aR)-8-(2-((2R,4R)-4-((tert-butyldimethylsilyl)oxy)-6-oxotetrahydro-2H-pyran-2-yl)ethyl)-3,7-dimethyl-1,2,3,7,8,8a-hexahydronaphthalen-1-yl4-(2-(2-((2-(2,6-dioxopiperidin-3-yl)-1,3-dioxoisoindolin-4-yl)amino)ethoxy)ethyl)piperidine-1-carboxylate], < 50 nM.
`C[C@H]1C=C2C=C[C@H](C)[C@H](CC[C@@H]3C[C@@H](O[Si](C)(C)C(C)(C)C)CC(=O)O3)[C@H]2[C@@H](OC(=O)NCCCCOCCCCNc2cccc3c2C(=O)N(C2CCC(=O)NC2=O)C3=O)C1` (stereo partly drawn) [Compound 88, (1S,3R,7S,8S,8aR)-8-(2-((2R,4R)-4-((tert-butyldimethylsilyl)oxy)-6-oxotetrahydro-2H-pyran-2-yl)ethyl)-3,7-dimethyl-1,2,3,7,8,8a-hexahydronaphthalen-1-yl (4-(4-((2-(2,6-dioxopiperidin-3-yl)-1,3-dioxoisoindolin-4-yl)amino)butoxy)butyl)carbamate]: the DC50 was < 50 nM.
The value for `C[C@H]1C=C2C=C[C@H](C)[C@H](CC[C@@H]3C[C@@H](O[Si](C)(C)C(C)(C)C)CC(=O)O3)[C@H]2[C@@H](OC(=O)NCCCCCNc2cccc3c2C(=O)N(C2CCC(=O)NC2=O)C3=O)C1` (stereo partly drawn) [Compound 51, (1S,3R,7S,8S,8aR)-8-(2-((2R,4R)-4-((tert-butyldimethylsilyl)oxy)-6-oxotetrahydro-2H-pyran-2-yl)ethyl)-3,7-dimethyl-1,2,3,7,8,8a-hexahydronaphthalen-1-yl (5-((2-(2,6-dioxopiperidin-3-yl)-1,3-dioxoisoindolin-4-yl)amino)pentyl)carbamate] was < 50 nM.

Values taken from patent publication US12479840B2, “HMG-CoA reductase degradation inducing compound” (Uppthera, priority 2020, dated 2025).
